According to publication PMC8226862, “Design, Synthesis and Anticancer Activity of a New Series of N-aryl-N′-[4-(pyridin-2-ylmethoxy)benzyl]urea Derivatives” (Molecules, 2021):

What was measured:
[1] = test system: A549 (non-small cell lung cancer cell line); test: MTT antiproliferative assay, A549; assay type: cell-based, human; conditions: 96 h incubation
Description: (§1) The target compounds were evaluated for their antiproliferative activity against different human cancer cell lines, including A549 (non-small cell lung cancer cell line), MCF-7 (breast cancer cell line), HCT116 (colon cancer cell line), PC-3 (prostate cancer cell line) and HL7702 (human liver normal cell line) by using the MTT assay with sorafenib as the control drug.
(§2) The antiproliferative activities of target compounds were determined using a standard MTT assay. Exponentially growing cells A549 (1.5 × 10^3 cells/well), MCF-7 (2.2 × 10^3 cells/well), HCT-116 (800 cells/well), PC-3 (2.0 × 10^3 cells/well) and HL7702 (5.0 × 10^3 cells/well) were seeded into 96-well plates and incubated for 24 h to allow the cells to attach. Then, a fresh medium containing various concentrations of the candidate compounds was added to each well. The cells were then incubated for 96 h, thereafter MTT assays were performed, and cell viability was assessed at 570 nm by a microplate reader (ThermoFisher Scientific (Shanghai) Instrument Co., Ltd., Shanghai, China). The optical densities (OD) at 570 nm were measured, and the IC50 of the target compounds was calculated by using GraphPad Prism 5.0 software to perform nonlinear fitting with the cell survival rate under different concentrations of the compounds.

[2] = test system: MCF-7 (breast cancer cell line); test: MTT antiproliferative assay, MCF7; assay type: cell-based, human; conditions: 96 h incubation
Description: as §1, §2

[3] = test system: HCT116 (colon cancer cell line); test: MTT antiproliferative assay, HCT116; assay type: cell-based, human; conditions: 96 h incubation
Description: as §1, §2

[4] = test system: PC-3 (prostate cancer cell line); test: MTT antiproliferative assay, PC3; assay type: cell-based, human; conditions: 96 h incubation
Description: as §1, §2

[5] = test system: HL7702 (human liver normal cell line); test: MTT cytotoxicity assay, HL7702; assay type: cell-based; conditions: L02, HL7702 normal liver cells, 96 h incubation
Description: as §1, §2

[6] = test system: MCF-7 cells; test: Cell cycle analysis by flow cytometry (PI staining); assay type: cell-based, human; conditions: for percentage of cells in the G2/M phase: 72 h
Description: The effect of compound 9b on the cell cycle was assayed.
[…] After an incubation period, the cells were collected, centrifuged, and fixed with ice-cold ethanol (70%). The cells were then treated with buffer containing RNAse A and 0.1% Triton X-100 and then stained with the propidium iodide (PI). The samples were analyzed on a flow cytometer (Becton, Dickinson, Franklin Lakes, NJ, USA). Data were analyzed using Flowjo software v9.0.

Structure (SMILES) | IC50 ([1]; Homo sapiens, A549, 96 h) | IC50 ([2]; Homo sapiens, MCF7, 96 h) | IC50 ([3]; Homo sapiens, HCT-116, 96 h) | IC50 ([4]; Homo sapiens, 96 h) | IC50 [1] | IC50 [2] | IC50 [3] | IC50 [4] | melting point | IC50 [5] | percentage of cells in the G2/M phase ([6]; MCF-7, 2.5 μM) | percentage of cells in the G2/M phase ([6]; MCF-7, 5 μM) | percentage of cells in the G2/M phase ([6]; MCF-7, 10 μM) | percentage of cells in the G2/M phase ([6]; MCF-7, 20 μM) | effect on the cell cycle ([6]; MCF-7, 2.5-20 μM, concentration-dependent)
CNC(=O)c1cc(Oc2ccc(NC(=O)Nc3ccc(Cl)c(C(F)(F)F)c3)cc2)ccn1 [sorafenib, reference compound] | 6.16 ± 0.46 µM | 3.54 ± 0.19 µM | 3.88 ± 0.36 µM | 5.26 ± 0.46 µM | – | – | – | – | – | > 50 µM | – | – | – | – | –
COc1cc(CN(C(=O)Nc2cccc(C(F)(F)F)c2)C2CCN(C)CC2)ccc1OCc1nccc(OCC(F)(F)F)c1C [9d, 1-(3-methoxy-4-((3-methyl-4-(2,2,2-trifluoroethoxy)pyridin-2-yl)methoxy)benzyl)-1-(1-methylpiperidin-4-yl)-3-(3-(trifluoromethyl)phenyl)urea] | < 5 µM | < 3 µM | < 3 µM | < 5 µM | 3.17 ± 0.22 µM | 2.63 ± 0.08 µM | 2.56 ± 0.26 µM | 3.62 ± 0.27 µM | 160.4 to 162.2 °C | > 50 µM | – | – | – | – | –
COc1ccc(NC(=O)N(Cc2ccc(OCc3nccc(OCC(F)(F)F)c3C)c(OC)c2)C2CCN(C)CC2)cc1 [9c, 1-(3-methoxy-4-((3-methyl-4-(2,2,2-trifluoroethoxy)pyridin-2-yl)methoxy)benzyl)-3-(4-methoxyphenyl)-1-(1-methylpiperidin-4-yl)urea] | 15.8 ± 1.51 µM | 4.65 ± 0.73 µM | 12.9 ± 1.59 µM | 12.3 ± 1.75 µM | – | – | – | – | 179.1 to 180.8 °C | > 50 µM | – | – | – | – | –
COc1cc(CN(C(=O)Nc2cccc([N+](=O)[O-])c2)C2CCN(C)CC2)ccc1OCc1nccc(OCC(F)(F)F)c1C [9f, 1-(3-methoxy-4-((3-methyl-4-(2,2,2-trifluoroethoxy)pyridin-2-yl)methoxy)benzyl)-1-(1-methylpiperidin-4-yl)-3-(3-nitrophenyl)urea] | 6.09 ± 0.29 µM | 3.18 ± 0.3 µM | 5.18 ± 0.33 µM | 7.39 ± 0.63 µM | – | – | – | – | 157.5 to 159.1 °C | > 50 µM | – | – | – | – | –
COc1cc(CN(C(=O)Nc2ccc(C(F)(F)F)cc2)C2CCN(C)CC2)ccc1OCc1nccc(OCC(F)(F)F)c1C [9b, 1-(3-methoxy-4-((3-methyl-4-(2,2,2-trifluoroethoxy)pyridin-2-yl)methoxy)benzyl)-1-(1-methylpiperidin-4-yl)-3-(4-(trifluoromethyl)phenyl)urea] | < 5 µM | < 3 µM | < 3 µM | < 5 µM | 4.93 ± 0.46 µM | 2.56 ± 0.07 µM | 2.9 ± 0.16 µM | 3.36 ± 0.17 µM | 138.4 to 140.5 °C | > 50 µM | 16.7% | 23.5% | 27.7% | 39.3% | obvious G2/M arrest
COc1cc(CN(C(=O)Nc2ccc(F)c(Cl)c2)C2CCN(C)CC2)ccc1OCc1nccc(OCC(F)(F)F)c1C [9e, 3-(3-chloro-4-fluorophenyl)-1-(3-methoxy-4-((3-methyl-4-(2,2,2-trifluoroethoxy)pyridin-2-yl)methoxy)benzyl)-1-(1-methylpiperidin-4-yl)urea] | 5.48 ± 4.36 µM | < 3 µM | 5.82 ± 0.21 µM | < 5 µM | – | 2.56 ± 0.16 µM | – | 4.53 ± 0.33 µM | 176.2 to 177.7 °C | > 50 µM | – | – | – | – | –
COc1cc(CN(C(=O)Nc2ccc(OC(F)(F)F)cc2)C2CCN(C)CC2)ccc1OCc1nccc(OCC(F)(F)F)c1C [9a, 1-(3-methoxy-4-((3-methyl-4-(2,2,2-trifluoroethoxy)pyridin-2-yl)methoxy)benzyl)-1-(1-methylpiperidin-4-yl)-3-(4-(trifluoromethoxy)phenyl)urea] | 17.5 ± 2.95 µM | < 3 µM | 4.41 ± 0.14 µM | < 5 µM | – | 2.59 ± 0.29 µM | – | 4.1 ± 0.19 µM | 127.3 to 129.4 °C | > 50 µM | – | – | – | – | –

More lines, main results first:

IC50 ([1]; Homo sapiens, A549, 96 h) | IC50 ([2]; Homo sapiens, MCF7, 96 h) | IC50 ([3]; Homo sapiens, HCT-116, 96 h) | IC50 ([4]; Homo sapiens, 96 h) | IC50 [1] | IC50 [2] | IC50 [3] | IC50 [4] | melting point | Structure (SMILES) | IC50 [5] | percentage of cells in the G2/M phase ([6]; MCF-7, 2.5 μM) | percentage of cells in the G2/M phase ([6]; MCF-7, 5 μM) | percentage of cells in the G2/M phase ([6]; MCF-7, 10 μM) | percentage of cells in the G2/M phase ([6]; MCF-7, 20 μM) | effect on the cell cycle ([6]; MCF-7, 2.5-20 μM, concentration-dependent)
9.85 ± 4.4 µM | > 50 µM | 10.9 ± 2.85 µM | > 50 µM | – | – | – | – | 159.4 to 161.4 °C | COc1cc(CNC(=O)NCc2ccc(N(C)C)cc2)ccc1OCc1nccc(OCC(F)(F)F)c1C [8i, 1-(4-(dimethylamino)benzyl)-3-(3-methoxy-4-((3-methyl-4-(2,2,2-trifluoroethoxy)pyridin-2-yl)methoxy)benzyl)urea] | > 50 µM | – | – | – | – | –
10.9 ± 2.02 µM | > 50 µM | 23.3 ± 3.12 µM | > 50 µM | – | – | – | – | 148.9 to 149.9 °C | CCOc1ccc(CNC(=O)NCc2ccc(OCc3nccc(OCC(F)(F)F)c3C)c(OC)c2)cc1 [8h, 1-(4-ethoxybenzyl)-3-(3-methoxy-4-((3-methyl-4-(2,2,2-trifluoroethoxy)pyridin-2-yl)methoxy)benzyl)urea] | > 50 µM | – | – | – | – | –
26.5 ± 5.66 µM | > 50 µM | 9.44 ± 1.22 µM | > 50 µM | – | – | – | – | 153.2 to 154.2 °C | COc1cc(CNC(=O)Nc2cccc(C(F)(F)F)c2)ccc1OCc1nccc(OCC(F)(F)F)c1C [8d, 1-(3-methoxy-4-((3-methyl-4-(2,2,2-trifluoroethoxy)pyridin-2-yl)methoxy)benzyl)-3-(3-(trifluoromethyl)phenyl)urea] | > 50 µM | – | – | – | – | –
29.8 ± 5.09 µM | > 50 µM | 28.8 ± 3.11 µM | > 50 µM | – | – | – | – | 179.5 to 180.3 °C | COc1ccc(NC(=O)NCc2ccc(OCc3nccc(OCC(F)(F)F)c3C)c(OC)c2)cc1 [8e, 1-(3-methoxy-4-((3-methyl-4-(2,2,2-trifluoroethoxy)pyridin-2-yl)methoxy)benzyl)-3-(4-methoxyphenyl)urea] | > 50 µM | – | – | – | – | –
> 50 µM | > 50 µM | 7.84 ± 1.4 µM | > 50 µM | – | – | – | – | 153 to 154.2 °C | COc1ccc(CNC(=O)NCc2ccc(OCc3nccc(OCC(F)(F)F)c3C)c(OC)c2)cc1 [8g, 1-(3-methoxy-4-((3-methyl-4-(2,2,2-trifluoroethoxy)pyridin-2-yl)methoxy)benzyl)-3-(4-methoxybenzyl)urea] | > 50 µM | – | – | – | – | –
< 5 µM | > 50 µM | 11.4 ± 3.28 µM | > 50 µM | 4.88 ± 1.94 µM | – | – | – | 169.9 to 171 °C | COc1cc(CNC(=O)Nc2ccc(C(F)(F)F)cc2)ccc1OCc1nccc(OCC(F)(F)F)c1C [8c, 1-(3-methoxy-4-((3-methyl-4-(2,2,2-trifluoroethoxy)pyridin-2-yl)methoxy)benzyl)-3-(4-(trifluoromethyl)phenyl)urea] | > 50 µM | – | – | – | – | –
17.7 ± 5.65 µM | 11 ± 1.68 µM | 9.33 ± 1.38 µM | 29.1 ± 5.81 µM | – | – | – | – | 167.8 to 169.1 °C | COc1cc(CNC(=O)Nc2ccc(F)c(Cl)c2)ccc1OCc1nccc(OCC(F)(F)F)c1C [8b, 1-(3-chloro-4-fluorophenyl)-3-(3-methoxy-4-((3-methyl-4-(2,2,2-trifluoroethoxy)pyridin-2-yl)methoxy)benzyl)urea] | > 50 µM | – | – | – | – | –
5.3 ± 1.45 µM | > 50 µM | 7.25 ± 0.87 µM | > 50 µM | – | – | – | – | 158.8 to 159.3 °C | COc1cc(CNC(=O)Nc2ccc(OC(F)(F)F)cc2)ccc1OCc1nccc(OCC(F)(F)F)c1C [8a, 1-(3-methoxy-4-((3-methyl-4-(2,2,2-trifluoroethoxy)pyridin-2-yl)methoxy)benzyl)-3-(4-(trifluoromethoxy)phenyl)urea] | > 50 µM | – | – | – | – | –
6.04 ± 0.41 µM | 4.23 ± 0.47 µM | < 3 µM | 6.25 ± 0.43 µM | – | – | 2.93 ± 0.26 µM | – | 119 to 121.2 °C | CCOc1ccc(CNC(=O)N(Cc2ccc(OCc3nccc(OCC(F)(F)F)c3C)c(OC)c2)C2CCN(C)CC2)cc1 [9g, 3-(4-ethoxybenzyl)-1-(3-methoxy-4-((3-methyl-4-(2,2,2-trifluoroethoxy)pyridin-2-yl)methoxy)benzyl)-1-(1-methylpiperidin-4-yl)urea] | > 50 µM | – | – | – | – | –
12.4 ± 0.6 µM | 13.3 ± 2.27 µM | 13.3 ± 2.78 µM | 15.9 ± 0.73 µM | – | – | – | – | 168.9 to 170.5 °C | COc1cc(CNC(=O)Nc2cccc([N+](=O)[O-])c2)ccc1OCc1nccc(OCC(F)(F)F)c1C [8f, 1-(3-methoxy-4-((3-methyl-4-(2,2,2-trifluoroethoxy)pyridin-2-yl)methoxy)benzyl)-3-(3-nitrophenyl)urea] | > 50 µM | – | – | – | – | –
